For test [1], the target named is T1, Bruton's Tyrosine Kinase (Btk) (Homo sapiens, UniProt Q06187).
T1 construct: 5-10 nM Btk enzyme (His-tagged, full-length); His tag
The experiment in a line: Determination of IC50 of Bruton's Tyrosine Kinase (Btk) inhibition, 33P filtration assay. In kind it is biochemical. The conditions noted are these: His-tagged full-length Btk, 100 μM ATP. The text has this:
Determination of IC50 of Bruton's Tyrosine Kinase (Btk) Inhibition
The assay is a capture of radioactive ^33P phosphorylated product through filtration. The interactions of Btk, biotinylated SH2 peptide substrate (Src homology), and ATP lead to phosphorylation of the peptide substrate. Biotinylated product is bound streptavidin sepharose beads. All bound, radiolabeled products are detected by scintillation counter.
Plates assayed are 96-well polypropylene (Greiner) and 96-well 1.2 μm hydrophilic PVDF filter plates (Millipore). Concentrations reported here are final assay concentrations: 10-100 μM compounds in DMSO (Burdick and Jackson), 5-10 nM Btk enzyme (His-tagged, full-length), 30 μM peptide substrate (Biotin-Aca-[…]-NH2), 100 μM ATP (Sigma), 8 mM imidazole (Sigma, pH 7.2), 8 mM glycerol-2-phosphate (Sigma), 200 μM EGTA (Roche Diagnostics), 1 mM MnCl2 (Sigma), 20 mM MgCl2 (Sigma), 0.1 mg/ml BSA (Sigma), 2 mM DTT (Sigma), 1 μCi ^33P ATP (Amersham), 20% streptavidin sepharose beads (Amersham), 50 mM EDTA (Gibco), 2 M NaCl (Gibco), 2 M NaCl w/1% phosphoric acid (Gibco), microscint-20 (Perkin Elmer).
IC50 determinations are calculated from 10 data points per compound utilizing data produced from a standard 96-well plate assay template. One control compound and seven unknown inhibitors were tested on each plate and each plate was run twice. Typically, compounds were diluted in half-log starting at 100 μM and ending at 3 nM. The control compound was staurosporine. Background was counted in the absence of peptide substrate. Total activity was determined in the presence of peptide substrate. The following protocol was used to determine BTK inhibition.
1) Sample preparation: The test compounds were diluted at half-log increments in assay buffer (imidazole, glycerol-2-phosphate, EGTA, MnCl2, MgCl2, BSA).
2) Bead preparation • a.) rinse beads by centrifuging at 500 g • b.) reconstitute the beads with PBS and EDTA to produce a 20% bead slurry
3) Pre-incubate reaction mix without substrate (assay buffer, DTT, ATP, ^33P ATP) and mix with substrate (assay buffer, DTT, ATP, ^33P ATP, peptide substrate) 30° C. for 15 min.
4) To start assay, pre-incubate 10 μL BTK in enzyme buffer (imidazole, glycerol-2-phosphate, BSA) and 10 μL of test compounds for 10 min at RT.
5) Add 30 μL reaction mixture without or with substrate to BTK and compounds.
6) Incubate 50 μL total assay mix for 30 min at 30° C.
7) Transfer 40 μL of assay to 150 μL bead slurry in filter plate to stop reaction.
8) Wash filter plate after 30 min, with following steps • a. 3 ×250 μL NaCl • b. 3×250 μL NaCl containing 1% phosphoric acid • c. 1×250 μL H2O
9) Dry plate for 1 h at 65° C. or overnight at RT
10) Add 50 μL microscint-20 and count ^33P cpm on scintillation counter.
Calculate percent activity from raw data in cpm percent activity=(sample−bkg)/(total activity−bkg)×100

The next test deals with Ramos cells. The experiment in a line: Inhibition of B-cell activation, B cell FLIPR assay in Ramos cells. Type of test: cell-based. The note with it: Homo sapiens, anti-IgM stimulated intracellular calcium increase. The text has this: Inhibition of B-cell Activation—B Cell FLIPR Assay in Ramos Cells
The B cell FLIPR assay is a cell based functional method of determining the effect of potential inhibitors of the intracellular calcium increase from stimulation by an anti-IgM antibody. Ramos cells (human Burkitt's lymphoma cell line. ATCC-No. CRL-1596) were cultivated in Growth Media (described below). One day prior to assay, Ramos cells were resuspended in fresh growth media (same as above) and set at a concentration of 0.5×10^6/mL in tissue culture flasks. On day of assay, cells were counted and set at a concentration of 1×10^6/mL in growth media supplemented with 1 μM FLUO-3 AM(TefLabs Cat-No. 0116, prepared in anhydrous DMSO and 10% Pluronic acid) in a tissue culture flask, and incubated at 37° C. (4% CO2) for 1 h. To remove extracellular dye, cells were collected by centrifugation (5 min, 1000 rpm), resuspended in FLIPR buffer (described below) at 1×10^6 cells/mL and then dispensed into 96-well poly-D-lysine coated black/clear plates (BD Cat-No. 356692) at 1×10^5 cells per well. Test compounds at seven concentrations ranging from 100 μM to 0.03 μM were added, and allowed to incubate with cells for 30 min at RT. Ramos cell Ca^2+ signaling was stimulated by the addition of 10 μg/mL anti-IgM (Southern Biotech, Cat-No. 2020-01) and measured on a FLIPR (Molecular Devices, captures images of 96 well plates using a CCD camera with an argon laser at 480 nm excitation).
Growth Medium: RPMI 1640 medium with L-glutamine (Invitrogen, Cat-No. 61870-010), 10% Fetal Bovine Serum (FBS, Summit Biotechnology Cat-No. FP-100-05); 1 mM Sodium Pyruvate (Invitrogen Cat. No. 11360-070).
FLIPR buffer: HBSS (Invitrogen, Cat-No. 141175-079),2 mM CaCl2 (Sigma Cat-No. C-4901), HEPES (Invitrogen, Cat-No. 15630-080), 2.5 mM Probenecid (Sigma, Cat-No. P-8761), 0.1% BSA (Sigma, Cat-No. A-7906), 11 mM Glucose (Sigma, Cat-No. G-7528).
In order to achieve the highest final assay concentration of 100 μM, 24 μL of 10 mM compound stock solution (made in DMSO) is added directly to 576 μL of FLIPR buffer. The test compounds are diluted in FLIPR Buffer (using Biomek 2000 robotic pipettor) resulting in the following dilution scheme: vehicle, 1.00×10^−4 M, 1.00×10^−5, 3.16×10^−6, 1.00×10^−6, 3.16×10^−7, 1.00×10^−7, 3.16×10^−8.
Intracellular increases in calcium were reported using a max-min statistic (subtracting the resting baseline from the peak caused by addition of the stimulatory antibody using a Molecular Devices FLIPR control and statistic exporting software. The IC50 was determined using a non-linear curve fit (GraphPad Prism software). Representative results are in Table 1.
In general terms: A change in cytosolic calcium serves as a functional read-out for many receptors and channels.

In test [2] the target is T2, Spleen Tyrosine Kinase (SYK) aa 360-635 (Homo sapiens, UniProt P43405).
T2 construct: truncated construct of Spleen Tyrosine Kinase aa 360-635; made in house
The experiment in a line: Determination of IC50 of Spleen Tyrosine Kinase (SYK) inhibition, 33P kinase assay. The note with it: recombinant human SYK360-635, 20 μM ATP; read-out: IC50 (μM) SYK Assay. Type of test: biochemical. The procedure: Determination of IC50 of Spleen Tyrosine Kinase (SYK) Inhibition
The SYK kinase assay is a standard kinase assay adapted to a 96 well plate format. This assay is performed in 96-well format for IC50 determination with 8 samples which represented 10 half log dilutions and a 40 μL reaction volume. The assay measures the incorporation of radiolabeled ^33P γATP into an N-terminally biotinylated peptide substrate, derived from naturally occurring phosphoacceptor consensus sequence (Biotin-11aa DY*E). Phosphorylated products were detected upon termination of reactions with EDTA and the addition of Streptavidin coated beads. • Assay plates: 96-well MultiScreen 0.65 um filter plates (Millipore Cat. No.: MADVNOB10) • Streptavidin coated beads: Streptavidin Sepharose TM, suspension 5.0 mL, in 50 mM EDTA/PBS diluted (1:100), (Amersham, Cat. No.: 17-5113-01) • Compounds: 10 mM in 100% dimethylsulfoxide (DMSO), final conc.: compound 0.003-100 uM in 10% DMSO • Enzyme: SYK RPA purified, truncated construct of Spleen Tyrosine Kinase aa 360-635, stock solution 1 mg/mL, MW: 31.2 KDa, final conc.:0.0005 μM. • Peptide 1: biotinylated peptide is derived from a naturally occurring phosphor-acceptor consensus sequence (Biotin-[…]), special order from QCB, stock solution 20 mM, final conc.: 5.0 μM. • ATP: Adenosine-5′-triphosphate 20 mM, (ROCHE Cat. No.:93202720), final concentration: 20 μM • Buffer: HEPES: 2-Hydroxyethyl piperazine-2-ethanesulfonic acid (Sigma, Cat. No.: H-3375) final concentration: 50 mM HEPES pH7.5 • BSA: Bovine Serum Albumin Fraction V, fatty acid free (Roche Diagnostics GmbH, Cat. No. 9100221) diluted to a final concentration of 0.1% • EDTA: EDTA stock solution 500 mM, (GIBCO, Cat. No.: 15575-038) final concentration: 0.1 mM • DTT: 1,4-Dithiothreitol (Roche Diagnostics GmbH, Cat. No.: 197777), final conc.: 1 mM • MgCl2×6H2O: MERCK, Cat. No.: 105833.1000, final concentration: 10 mM • Assay Dilution Buffer (ADB): 50 mM HEPES, 0.1 mM EGTA, 0.1 mM Na Vanadate, 0.1 mM β-glycerophosphate, 10 mM MgCl2, 1 mM DTT, 0,1% BSA, pH 7.5 • Bead wash buffer: 10 g/L PBS (Phosphate buffered saline) with 2M NaCl+1% phosphoric acid Experimental Method:
In 40 μL volume, 26 μL of ADB diluted, purified recombinant human SYK360-635 [0.5 nM] was mixed with 4 μL of 10× concentrations of the test compounds, [usually 100 μM-0.003 μM] in [10%] DMSO and the mixture was incubated for 10 min at RT.
The kinase reaction was initiated by the addition of 10 μL 4× substrate cocktail containing the DYE peptide substrate [0 or 5 μM], ATP [20 μM] and […] [2 μCi/rxn]. After incubation at 30° C. for 15 min, the reaction was terminated by the transfer of 25 μL of the reaction sample to a 96 well 0.65 um Millipore MADVNOB membrane/plate containing 200 μL 5 mM EDTA and 20% Streptavidine coated beads in PBS.
The unbound radionucleotides were washed under vacuum with 3×250 μL 2M NaCl; 2×250 μL 2M NaCl+1% phosphoric acid; 1×250 μL H2O. After the last wash membrane/plates were transferred to an adaptor plate, heat dried for 15 min at 60° C., and 50 μL scintillation cocktail was added to each well and 4 h later the amount of radioactivity was counted in a top counter.
The IC50 was calculated using a non-linear curve fit with XLfit software (ID Business Solution Ltd., Guilford, Surrey, UK). […] Representative results are in Table 1.

We go through three compounds from patent publication US7501410B2, “Methods of inhibiting BTK and SYK protein kinases” (Roche Palo Alto LLC, priority 2006, dated 2009).

Structures are written as SMILES.

Usually IC50 stands for the concentration that inhibits the measured activity by half.

T1 sequence (Q06187 whole entry): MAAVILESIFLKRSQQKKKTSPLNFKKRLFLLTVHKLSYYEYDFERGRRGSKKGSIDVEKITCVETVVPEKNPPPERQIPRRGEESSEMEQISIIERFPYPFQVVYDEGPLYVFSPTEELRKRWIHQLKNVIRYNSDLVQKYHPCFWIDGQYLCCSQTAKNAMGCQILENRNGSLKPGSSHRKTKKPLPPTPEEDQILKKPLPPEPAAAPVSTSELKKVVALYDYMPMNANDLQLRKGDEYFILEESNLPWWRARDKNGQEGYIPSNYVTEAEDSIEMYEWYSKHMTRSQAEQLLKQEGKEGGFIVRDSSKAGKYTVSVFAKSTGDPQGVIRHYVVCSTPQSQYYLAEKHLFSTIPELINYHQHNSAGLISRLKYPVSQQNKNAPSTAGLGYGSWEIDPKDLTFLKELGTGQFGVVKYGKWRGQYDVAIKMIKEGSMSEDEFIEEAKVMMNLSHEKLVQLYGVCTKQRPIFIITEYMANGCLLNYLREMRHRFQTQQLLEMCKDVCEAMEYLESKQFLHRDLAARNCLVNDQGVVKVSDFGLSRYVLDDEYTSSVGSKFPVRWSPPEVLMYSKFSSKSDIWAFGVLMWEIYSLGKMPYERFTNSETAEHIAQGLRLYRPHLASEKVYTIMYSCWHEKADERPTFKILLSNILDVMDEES

For `Cc1cc(Nc2nn(C(C)C)c(=O)c3cc(N(C)C)ccc23)n[nH]1` [Example F-6, 2-Isopropyl-4-(5-methyl-1H-pyrazol-3-ylamino)-7-dimethylamino-2H-phthalazin-1-one], the half-maximal inhibitory concentration (IC50) in test [1] stood at 0.468 µM; with Ramos cells, 1.13 µM.
For `Cc1cc(Nc2nn(C(C)C)c(=O)c3cc(C(=O)OCC4CC4)ccc23)n[nH]1` [Example M-6, 3-Isopropyl-1-(5-methyl-1H-pyrazol-3-ylamino)-4-oxo-3,4-dihydro-phthalazine-6-carboxylic acid cyclopropylmethyl ester], the IC50 is 9.99 µM in test [2] and 67.7 µM in test [1].
In the case of `Cc1cc(Nc2nn(C(C)C)c(=O)c3ccc(N(C)C)cc23)n[nH]1` [Example F-7, 2-Isopropyl-4-(5-methyl-1H-pyrazol-3-ylamino)-6-dimethylamino-2H-phthalazin-1-one], the IC50 in test [2] was determined as 37.4 µM; in test [1], 14.6 µM.
